Test results published in patent US10399939B2, “Tetrahydronaphthalene estrogen receptor modulators and uses thereof” (Genentech, Inc., priority 2015, dated 2019).

Biological target: ER-alpha (WT) (Homo sapiens (Human), UniProt P03372)
Assay: Breast Cancer Cell ERa High Content Fluorescence Imaging Degradation Assay (ER-alpha MCF7 HCS)
Assay type: cell-based
Settings: MCF7 breast cancer cells; for EC50 / ER-alpha (WT) MCF7 HCS (EC50): 4 hours incubation, inflexion point of curve; for ER-alpha (WT) MCF7 HCS (S inf): plateau of the maximal effect (ERa degradation), DMSO and 5 nM Fulvestrant define 0% and 100% changes in ESR1
Method: Example 901: Breast Cancer Cell ERa High Content Fluorescence Imaging Degradation Assay
MCF7 breast cancer cells were seeded on day 1 at a density of 10,000 cells per well in 384 well poly-lysine coated tissue culture plate (Greiner # T-3101-4), in 50 µL/well RPMI (phenol red free), 10% FBS (Charcoal stripped), containing L-glutamine. […] Compounds and controls were dispensed using a Labcyte Echo acoustic dispenser to dispense compounds with a pre-defined serial dilution (1.8×, 10 point, in duplicate) and appropriate backfill and control compounds (final total volume transferred was 417.5 nL and compound dispense volume ranges from 2.5 nL to 417.5 nL; 0.84% DMSO (v/v) final), ultimately producing a concentration range from 0.05 nM to 835 nM. Cell plates were incubated at 37° C., for 4 hours. Fixation and permeabilization were carried out using a Biotek EL406 plate washer and dispenser as follows. Cells were fixed by addition of 15 μL of 16% paraformaldehyde (Electron Microscopy Sciences #15710-S) directly to the 50 μL cell culture medium in each well using the peristaltic pump 5 μL cassette on a Biotek EL406 (final concentration of formaldehyde was 3.7% w/v). Samples were incubated 30 minutes. Well contents was aspirated and 50 μL/well of Phosphate Buffered Saline (PBS) containing 0.5% w/v bovine serum albumen, 0.5% v/v Triton X-100 (Antibody Dilution Buffer) was added to each well. Samples were incubated for 30 minutes. Well contents were aspirated and washed 3 times with 100 μL/well of PBS. Immunofluorescence staining of estrogen receptor alpha (ESR1) was carried out using a Biotek EL406 plate washer and dispenser as follows. The well supernatant was aspirated from the wells and 25 μL/well of anti-ESR1 mAb (F10) (Santa Cruz sc-8002) diluted 1:1000 in Antibody Dilution Buffer was dispensed. Samples were incubated for 2 hours at room temperature. Samples were washed 4 times with 100 μL/well of PBS. 25 μL (microliters)/well of secondary antibody solution (Alexafluor® 488 conjugate anti-mouse IgG (LifeTechnologies #A21202) diluted 1:1000 and Hoechst 33342 1 μg/ml diluted in Antibody Dilution Buffer) were dispensed into each well. Samples were incubated for 2 hours at room temperature. Samples were washed 3 times with 100 μL/well of PBS using a Biotek EL406. Quantitative fluorescence imaging of ESR1 was carried out using a Cellomics Arrayscan V® (Thermo). Fluorescence images of the samples (Channel 1: XF53 Hoechst (DNA stain); Channel 2: XF53 FITC (ESR1 stain)) were acquired using a Cellomics VTI Arrayscan using the Bioapplication “Compartmental Analysis” using the auto-exposure (based on DMSO control wells) setting “peak target percentile” set to 25% target saturation for both channels. Channel 1 (DNA stain) was used to define the nuclear region (Circ). Measurements of “Mean_CircAvgIntCh2”, which is the Alexafluor 488 fluorescence intensity (ESR1) within the nuclear region, was measured on a per cell basis and averaged over all the measured cells. Data analysis was carried out using Genedata Screener Software, with DMSO and 5 nM Fulvestrant treated samples being used to define the 0% and 100% changes in ESR1. The “Robust Fit” method was used to define the inflexion point of curve (EC50) and the plateau of the maximal effect (Sinf).

ER-alpha (WT), sequence (P03372 whole entry): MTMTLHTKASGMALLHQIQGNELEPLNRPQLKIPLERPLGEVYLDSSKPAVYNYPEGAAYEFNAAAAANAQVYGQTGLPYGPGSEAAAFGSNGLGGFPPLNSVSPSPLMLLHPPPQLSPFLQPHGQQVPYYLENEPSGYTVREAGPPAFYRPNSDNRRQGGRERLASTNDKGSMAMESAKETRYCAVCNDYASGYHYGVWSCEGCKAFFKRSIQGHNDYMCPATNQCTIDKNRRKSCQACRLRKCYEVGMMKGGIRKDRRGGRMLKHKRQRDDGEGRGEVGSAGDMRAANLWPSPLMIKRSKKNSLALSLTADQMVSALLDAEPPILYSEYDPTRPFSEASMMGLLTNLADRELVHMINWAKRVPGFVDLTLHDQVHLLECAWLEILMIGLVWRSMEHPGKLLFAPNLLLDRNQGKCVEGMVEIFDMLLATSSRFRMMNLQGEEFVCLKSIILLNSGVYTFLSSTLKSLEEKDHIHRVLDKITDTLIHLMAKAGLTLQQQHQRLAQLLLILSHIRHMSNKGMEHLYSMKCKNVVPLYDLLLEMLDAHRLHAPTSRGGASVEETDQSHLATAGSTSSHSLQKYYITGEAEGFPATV

Oc1ccc2c(c1)CCC1(CCCC1)[C@H]2c1ccc(OCCN2CC(CF)C2)cc1 [Compound 121, (S)-1′-(4-(2-(3-(fluoromethyl)azetidin-1-yl)ethoxy)phenyl)-3′,4′-dihydro-1′H-spiro[cyclopentane-1,2′-naphthalen]-6′-ol]
EC50: 0.208 nM | ER-alpha (WT) MCF7 HCS (S inf): −98.5%

Oc1ccc2c(c1)CCC1(CCCC1)[C@@H]2c1ccc(OCCN2CC(CF)C2)cc1 [Compound 122, (R)-1′-(4-(2-(3-(fluoromethyl)azetidin-1-yl)ethoxy)phenyl)-3′,4′-dihydro-1′H-spiro[cyclopentane-1,2′-naphthalen]-6′-ol]
EC50: 0.451 nM | ER-alpha (WT) MCF7 HCS (S inf): −99.2%

C[C@@H](COc1ccc([C@@H]2c3ccc(O)cc3CC[C@@H]2c2ccccc2)cc1)N1CC[C@@H](CF)C1 [Compound 123, (5R,6S)-5-(4-((S)-2-((R)-3-(fluoromethyl)pyrrolidin-1-yl)propoxy)phenyl)-6-phenyl-5,6,7,8-tetrahydronaphthalen-2-ol]
EC50: 16.9 nM | ER-alpha (WT) MCF7 HCS (S inf): −30%

C[C@@H](COc1ccc([C@H]2c3ccc(O)cc3CC[C@H]2c2ccccc2)cc1)N1CC[C@@H](CF)C1 [Compound 124, (5S,6R)-5-(4-((S)-2-((R)-3-(fluoromethyl)pyrrolidin-1-yl)propoxy)phenyl)-6-phenyl-5,6,7,8-tetrahydronaphthalen-2-ol]
EC50: 0.0371 nM | ER-alpha (WT) MCF7 HCS (S inf): −93.4%

C[C@H](CN1CC[C@@H](CF)C1)Oc1ccc([C@@H]2c3ccc(O)cc3CC[C@@H]2c2ccccc2)cc1 [Compound 125, (5R,6S)-5-(4-(((R)-1-((R)-3-(fluoromethyl)pyrrolidin-1-yl)propan-2-yl)oxy)phenyl)-6-phenyl-5,6,7,8-tetrahydronaphthalen-2-ol]
ER-alpha (WT) MCF7 HCS (EC50): >0.10 µmol

C[C@H](CN1CC[C@@H](CF)C1)Oc1ccc([C@H]2c3ccc(O)cc3CC[C@H]2c2ccccc2)cc1 [Compound 126, (5S,6R)-5-(4-(((R)-1-((R)-3-(fluoromethyl)pyrrolidin-1-yl)propan-2-yl)oxy)phenyl)-6-phenyl-5,6,7,8-tetrahydronaphthalen-2-ol]
EC50: 0.675 nM | ER-alpha (WT) MCF7 HCS (S inf): −97.1%

Oc1ccc2c(c1)CC[C@H](c1ccccc1)[C@@H]2c1ccc(OCCN2CC(CF)C2)nc1 [Compound 127, (5S,6S)-5-(6-(2-(3-(fluoromethyl)azetidin-1-yl)ethoxy)pyridin-3-yl)-6-phenyl-5,6,7,8-tetrahydronaphthalen-2-ol]
EC50: 0.0461 nM | ER-alpha (WT) MCF7 HCS (S inf): −96.5%

Oc1ccc2c(c1)CC[C@@H](c1ccccc1)[C@H]2c1ccc(OCCN2CC(CF)C2)nc1 [Compound 128, (5R,6R)-5-(6-(2-(3-(fluoromethyl)azetidin-1-yl)ethoxy)pyridin-3-yl)-6-phenyl-5,6,7,8-tetrahydronaphthalen-2-ol]
EC50: 12.5 nM | ER-alpha (WT) MCF7 HCS (S inf): −84%

Oc1ccc2c(c1)CC[C@@H](c1ccccc1)[C@H]2c1ccc(OC2CN(CCCF)C2)cc1 [Compound 129, (5S,6R)-5-(4-((1-(3-fluoropropyl)azetidin-3-yl)oxy)phenyl)-6-phenyl-5,6,7,8-tetrahydronaphthalen-2-ol]
ER-alpha (WT) MCF7 HCS (EC50): >0.10 µmol

Oc1ccc2c(c1)CC[C@H](c1ccccc1)[C@@H]2c1ccc(OC2CN(CCCF)C2)cc1 [Compound 130, (5R,6S)-5-(4-((1-(3-fluoropropyl)azetidin-3-yl)oxy)phenyl)-6-phenyl-5,6,7,8-tetrahydronaphthalen-2-ol]
EC50: 0.107 nM | ER-alpha (WT) MCF7 HCS (S inf): −99.3%

Oc1ccc2c(c1)CC[C@@H](c1ccccc1)[C@H]2c1ccc(NC2CN(CCCF)C2)cc1 [Compound 131, (5S,6R)-5-(4-((1-(3-fluoropropyl)azetidin-3-yl)amino)phenyl)-6-phenyl-5,6,7,8-tetrahydronaphthalen-2-ol]
EC50: 13.8 nM | ER-alpha (WT) MCF7 HCS (S inf): −35%

Oc1ccc2c(c1)CC[C@H](c1ccccc1)[C@@H]2c1ccc(NC2CN(CCCF)C2)cc1 [Compound 132, (5R,6S)-5-(4-((1-(3-fluoropropyl)azetidin-3-yl)amino)phenyl)-6-phenyl-5,6,7,8-tetrahydronaphthalen-2-ol]
EC50: 0.029 nM | ER-alpha (WT) MCF7 HCS (S inf): −99.9%

N#Cc1ccc([C@H]2CCc3cc(O)ccc3[C@H]2c2ccc(OCCN3CC(CF)C3)cc2)cc1 [Compound 133, 4-((1R,2S)-1-(4-(2-(3-(fluoromethyl)azetidin-1-yl)ethoxy)phenyl)-6-hydroxy-1,2,3,4-tetrahydronaphthalen-2-yl)benzonitrile]
EC50: 53 nM | ER-alpha (WT) MCF7 HCS (S inf): −30%

N#Cc1ccc([C@@H]2CCc3cc(O)ccc3[C@@H]2c2ccc(OCCN3CC(CF)C3)cc2)cc1 [Compound 134, 4-((1S,2R)-1-(4-(2-(3-(fluoromethyl)azetidin-1-yl)ethoxy)phenyl)-6-hydroxy-1,2,3,4-tetrahydronaphthalen-2-yl)benzonitrile]
EC50: 0.0385 nM | ER-alpha (WT) MCF7 HCS (S inf): −99.2%

Oc1cccc2c1[C@@H](c1ccc(OCCN3CC(CF)C3)cc1)[C@@H](c1ccccc1)CC2 [Compound 135, (7S,8R)-8-(4-(2-(3-(fluoromethyl)azetidin-1-yl)ethoxy)phenyl)-7-phenyl-5,6,7,8-tetrahydronaphthalen-1-ol]
EC50: 29.8 nM | ER-alpha (WT) MCF7 HCS (S inf): −82%

Oc1cccc2c1[C@H](c1ccc(OCCN3CC(CF)C3)cc1)[C@H](c1ccccc1)CC2 [Compound 136, (7R,8S)-8-(4-(2-(3-(fluoromethyl)azetidin-1-yl)ethoxy)phenyl)-7-phenyl-5,6,7,8-tetrahydronaphthalen-1-ol]
EC50: 186 nM | ER-alpha (WT) MCF7 HCS (S inf): −80%

Oc1ccc2c(c1)CC[C@H](c1ccccc1)[C@@H]2c1ccc(NCCN2CC(CF)C2)cc1 [Compound 137, (5R,6S)-5-(4-((2-(3-(fluoromethyl)azetidin-1-yl)ethyl)amino)phenyl)-6-phenyl-5,6,7,8-tetrahydronaphthalen-2-ol]
EC50: 186 nM | ER-alpha (WT) MCF7 HCS (S inf): −80%

Oc1ccc2c(c1)CC[C@@H](c1ccccc1)[C@H]2c1ccc(NCCN2CC(CF)C2)cc1 [Compound 138, (5S,6R)-5-(4-((2-(3-(fluoromethyl)azetidin-1-yl)ethyl)amino)phenyl)-6-phenyl-5,6,7,8-tetrahydronaphthalen-2-ol]
EC50: 0.203 nM | ER-alpha (WT) MCF7 HCS (S inf): −89.89%

Oc1ccc2c(c1)CC[C@H](c1ccccc1)[C@@H]2c1ccc(NCCN2CC[C@@H](CF)C2)cc1 [Compound 139, (5R,6S)-5-(4-((2-((R)-3-(fluoromethyl)pyrrolidin-1-yl)ethyl)amino)phenyl)-6-phenyl-5,6,7,8-tetrahydronaphthalen-2-ol]
EC50: 228 nM | ER-alpha (WT) MCF7 HCS (S inf): −50%

Oc1ccc2c(c1)CC[C@@H](c1ccccc1)[C@H]2c1ccc(NCCN2CC[C@@H](CF)C2)cc1 [Compound 140, (5S,6R)-5-(4-((2-((R)-3-(fluoromethyl)pyrrolidin-1-yl)ethyl)amino)phenyl)-6-phenyl-5,6,7,8-tetrahydronaphthalen-2-ol]
EC50: 0.773 nM | ER-alpha (WT) MCF7 HCS (S inf): −45%

Oc1ccc2c(c1)CC[C@H](c1ccccc1)[C@@H]2c1ccc(OCCN2CCCC2)cc1 [lasofoxifene, (5R,6S)-6-phenyl-5-(4-(2-(pyrrolidin-1-yl)ethoxy)phenyl)-5,6,7,8-tetrahydronaphthalen-2-ol, reference compound]
ER-alpha (WT) MCF7 HCS (S inf): −73.5%
